Laboratory results from patent publication US9242006B2, “Composition of chlorin e6 stabilized within albumin for the photodynamic diagnosis and therapy of tumors” (APOCARE PHARMA GMBH, priority 2011, dated 2016).

Key:
[1] = Storage stability of chlorin e6 in aqueous solutions with or without human serum albumin, measured by analytical HPLC; format: physicochemical; conditions: for residual active ingredient content / residual active ingredient content (HPLC area) / residual active ingredient content compared with 5 wt. % HSA / residual content of chlorin e6 (HPLC area) / residual chlorin e6 (HPLC area): 30° C.; for residual active ingredient content / residual active ingredient content (HPLC area): 5 wt. % HSA; for residual active ingredient content: all three pH values (7.0, 7.5, 8.0); for residual active ingredient content compared with 5 wt. % HSA: 10 wt. % HSA, pH 7 and pH 7.5; for residual content of chlorin e6 (HPLC area): 20 wt. % HSA; for residual content of chlorin e6 (mean) / residual active ingredient content (mean) / residual active ingredient content (HPLC area, mean) / residual active ingredient content (bound) / residual chlorin e6 (HPLC area, mean): 5° C.; for residual content of chlorin e6 (mean): pH 8.0, 1.25 wt. % HSA; for residual active ingredient content (mean): pH 8.0, 2.5 wt. % HSA; for residual active ingredient content (HPLC area, mean) / residual active ingredient content (bound): pH 8.0, 5 wt. % HSA; for residual chlorin e6 (HPLC area, mean): pH 8.0, pure buffer
Method: In order to determine the stability of a composition comprising chlorin e6 and an albumin, three buffer solutions with pH values of 7.0, 7.5 and 8.0, each of which contained potassium dihydrogen phosphate (Merck) and disodium hydrogen phosphate (Merck) as buffer salts, were prepared and sterilised.
Starting from a 20 wt. % stock solution of human serum albumin (Biotest AG), dilute solutions comprising 10 wt. %, 5 wt. % and 0 wt. % human serum albumin were then prepared by means of the above buffer solutions. For the buffering of the 20 wt. % stock solution of human serum albumin, the buffer salts were added in the form of solids directly to 20 ml aliquots of the stock solution.
Thereafter, 2 ml of each of the various buffered solutions were introduced into brown glass bottles with crimped caps, and 40 μl of a 75 mM solution of chlorin e6 sodium salt (ORPEGEN Peptide Chemicals GmbH) in water were added thereto. In this manner there were prepared aqueous solutions of chlorin e6 sodium salt having a concentration of 0 wt. %, 1.25 wt. %, 2.5 wt. %, 5 wt. %, 10 wt. % and 20 wt. % human serum albumin which had pH values of 7.0, 7.5 and 8.0. For the purpose of reproducibility of the results, the individual solutions were each made up several times.
The solutions were re-packaged in a light-tight manner and incubated at 30° C. in a drying cabinet or at 5° C. in a refrigerator. […] Maisch GmbH); eluant: 80 mM triethylammonium phosphate buffer pH 2.25/acetonitrile). The extent of the decomposition of chlorin e6 was calculated in each case by comparing the areas under the peak belonging to chlorin e6 in the HPLC diagram before and after storage.

[2] = 48 hours after administration; cited from earlier work

With `C=Cc1c(C)c2cc3nc(c(CC(=O)O)c4[nH]c(cc5nc(cc1[nH]2)C(C)=C5CC)c(C)c4C(=O)O)[C@@H](CCC(=O)O)[C@@H]3C` [chlorin e6] the “residual active ingredient content” value ([1]; 4 weeks) was > 95%, the “residual active ingredient content (HPLC area)” value ([1]; 4 weeks, pH 7.0) was 95.3 % area and the “residual active ingredient content (HPLC area)” value ([1]; 4 weeks, pH 7.5) was 97.5 % area. The “residual active ingredient content (HPLC area)” value ([1]; 4 weeks, pH 8.0) was 98.6 % area, the “residual active ingredient content compared with 5 wt. % HSA” value ([1]; 4 weeks) was “slightly higher” and the “residual content of chlorin e6 (HPLC area)” value ([1]; 4 weeks, pH 7.0) was 94.6 % area. For the same compound, the “residual content of chlorin e6 (HPLC area)” value ([1]; 4 weeks, pH 7.5) was 96.4 % area, the “residual content of chlorin e6 (HPLC area)” value ([1]; 4 weeks, pH 8.0) was 96.6 % area and the “residual chlorin e6 (HPLC area)” value ([1]; 4 weeks, pure buffer, no HSA, pH 7.0) was 1.9 % area. The “residual chlorin e6 (HPLC area)” value ([1]; 4 weeks, pure buffer, no HSA, pH 7.5) was 2.4 % area, the “residual chlorin e6 (HPLC area)” value ([1]; 4 weeks, pure buffer, no HSA, pH 8.0) was 3.6 % area and the “residual content of chlorin e6 (mean)” value ([1]; 6 months) was “approximately 83.6%”. For the same compound, the “residual active ingredient content (mean)” value ([1]; 6 months) was “approximately 96.6%”, the “residual active ingredient content (HPLC area, mean)” value ([1]; 6 months) was 97.9 % area and the “residual active ingredient content (bound)” value ([1]; 6 months) was > 97%. For the same compound, the “residual chlorin e6 (HPLC area, mean)” value ([1]; 6 months, no HSA) was 1.1 % area, the “residual content of chlorin e6 (mean)” value ([1]; 9 months) was “approximately 84.9%” and the “residual active ingredient content (mean)” value ([1]; 9 months) was “approximately 93.8%”. The “residual active ingredient content (HPLC area, mean)” value ([1]; 9 months) was 96.4 % area, the “residual active ingredient content (bound)” value ([1]; 9 months) was > 96% and the “residual chlorin e6 (HPLC area, mean)” value ([1]; 9 months, no HSA) was 1.74 % area. The “residual active ingredient content” value ([1]; 10 weeks) was > 94%, the “residual active ingredient content (HPLC area)” value ([1]; 10 weeks, pH 7.0) was 94.1 % area and the “residual active ingredient content (HPLC area)” value ([1]; 10 weeks, pH 7.5) was 96.0 % area. For the same compound, the “residual active ingredient content (HPLC area)” value ([1]; 10 weeks, pH 8.0) was 97.8 % area, the “residual active ingredient content compared with 5 wt. % HSA” value ([1]; 10 weeks) was “slightly higher” and the “residual content of chlorin e6 (HPLC area)” value ([1]; 10 weeks, pH 7.0) was 91.9 % area. The “residual content of chlorin e6 (HPLC area)” value ([1]; 10 weeks, pH 7.5) was 94.0 % area, the “residual content of chlorin e6 (HPLC area)” value ([1]; 10 weeks, pH 8.0) was 95.9 % area and the “residual chlorin e6 (HPLC area)” value ([1]; 10 weeks, pure buffer, no HSA, pH 7.0) was 0 % area. For the same compound, the “residual chlorin e6 (HPLC area)” value ([1]; 10 weeks, pure buffer, no HSA, pH 7.5) was 0.52 % area, the “residual chlorin e6 (HPLC area)” value ([1]; 10 weeks, pure buffer, no HSA, pH 8.0) was 0.89 % area and the “residual content of chlorin e6 (mean)” value ([1]; 12 months) was “approximately 69.5%”. For the same compound, the “residual active ingredient content (mean)” value ([1]; 12 months) was “approximately 93.6%”, the “residual active ingredient content (HPLC area, mean)” value ([1]; 12 months) was 96.7 % area and the “residual active ingredient content (bound)” value ([1]; 12 months) was > 96%. The “residual chlorin e6 (HPLC area, mean)” value ([1]; 12 months, no HSA) was 0.26 % area, the “residual chlorin e6 (HPLC area)” value ([1]; 4 days, addition of Na caprylate or N-acetyl-DL-tryptophan, no human serum albumin) was 68.8 % area and the “residual chlorin e6 (HPLC area)” value ([1]; 4 days, buffer solution pH 8, 5 wt. % human serum albumin) was 97.8 % area. The “residual chlorin e6 (HPLC area)” value ([1]; 4 days, non-buffered solution adjusted to pH 7, 5% human serum albumin) was 97.0 % area, the “residual chlorin e6 (HPLC area)” value ([1]; 4 days, pure buffer solution pH 8, no human serum albumin) was 59.1 % area and the “storage life of aqueous solution of chlorin e6 with human serum albumin” value ([1]; storage at 2 to 8° C., extrapolated from data of FIGS. 1 to 6) was “at least 12 months”. The “active substance detectable in the human organism” value [2] was “only traces”.
